Where two headings read alike, the source gives them in different places.
Molecular target: T1R1/T1R3 receptor (Felis catus, UniProt E3UMS2)
Assay: cell-based
Assay type: cell-based
Description: HEK293 cells that stably express T1R3 and inducibly express T1R1 were exposed to transmembrane compounds alone or in combination with one or more amino acids and/or one or more nucleotides to activate the umami receptor. Activation of the T1R1/T1R3 receptor was detected by a change in intracellular calcium levels using a calcium sensitive fluorescent dye. Cells that express T1R3 but not T1R1 were used as a control. A FLIPR® Tetra or a FlexStation® 3 was used for data capture.
In each experiment, serial dilutions of up to 10 mM of the transmembrane compound were added to the T1R1/T1R3-expressing cells.

[1] = + Alanine, Table 17, read-out: EC50 + Alanine
[2] = +Alanine (20 mM), Table 18, read-out: EC50 +Alanine
[3] = EC50 + IMP, + IMP (0.2 mM), Table 17
[4] = EC50 +Alanine + IMP, +Alanine (20 mM) + IMP (0.2 mM), Table 18
[5] = EC50 +IMP, +IMP (0.2 mM), Table 18
[6] = compound alone in buffer, Table 17, read-out: EC50 + buffer (alone)
[7] = compound alone in buffer, Table 18, read-out: EC50 +buffer (alone)

| Structure (SMILES) | Thres +Alanine (+ Alanine (20 nM), Table 17) | Max resp % of IMP + Alanine (+ Alanine, Table 17) | Max resp ΔF/F +Alanine (+ Alanine, Table 17) | EC50 [1] | Max resp % of ALa + IMP (+ IMP (0.2 mM), Table 17) | Thres + IMP (+ IMP (0.2 mM), Table 17) | Max resp ΔF/F +Alanine (+Alanine (20 mM), Table 18) | Thres +Alanine (+Alanine (20 mM), Table 18) | EC50 [2] | Max resp % of Ala +IMP (+IMP (0.2 mM), Table 18) | Max resp ΔF/F +IMP (+IMP (0.2 mM), Table 18) | EC50 [3] | EC50 [4] | EC50 [5] | EC50 [6] | EC50 [7] | other results |
| --- | --- | --- | --- | --- | --- | --- | --- | --- | --- | --- | --- | --- | --- | --- | --- | --- | --- |
| O=C(Nc1ccccc1Br)N[C@@H]1c2ccccc2C[C@@H]1O (stereo in doubt) [1-(2-bromophenyl)-3-((1R,2S)-2-hydroxy-2,3-dihydro-1H-inden-1-yl)urea] | 3 mM | 33.0 % of IMP | 0.3 | > 3000 µM | 44.9 % of ALa | 3 mM | 0.3 | 3 mM | > 3000 µM | 44.9 % of Ala | 0.378 | > 3000 µM | > 3000 µM | > 3000 µM | > 3000 µM | > 3000 µM | – |
| O=C(CN1C(=O)C(=O)N(Cc2ccccc2)C1=O)c1ccccc1 [1-benzyl-3-(2-oxo-2-phenylethyl)imidazolidine-2,4,5-trione] | 1 mM | 127.6 % of IMP | 1.3 | – | 135.7 % of ALa | 0.08 mM | 1.3 | 1 mM | – | 135.7 % of Ala | 1.140 | – | – | – | – | – | – |
| CSc1ccc(-c2nnn(Cc3ccccn3)n2)cc1 [2-((5-(4-(methylthio)phenyl)-2H-tetrazol-2-yl)methyl)pyridine] | – | – | – | – | 80.7 % of ALa | 0.1575 mM | – | – | – | 80.7 % of Ala | 0.678 | 630 µM | 270 µM | 630 µM | – | – | – |
| CCC(CC)NC(=O)c1ccc(OC)c(OC)c1 [3,4-dimethoxy-N-(pentan-3-yl)benzamide] | 0.3 mM | 43.9 % of IMP | 0.545 | > 10000 µM | 81.0 % of ALa | 0.5 mM | 0.545 | 0.3 mM | > 10000 µM | 81.0 % of Ala | 0.9975 | 2000 µM | > 3000 µM | 2000 µM | > 10000 µM | > 10000 µM | – |
| CCC(CC)NC(=O)c1ccc(C)c(C)c1 [3,4-dimethyl-N-(pentan-3-yl)benzamide] | 3 mM | 97.8 % of IMP | 1.2150 | > 3000 µM | 125.7 % of ALa | 0.525 mM | 1.2150 | 3 mM | > 3000 µM | 125.7 % of Ala | 1.5475 | 2100 µM | 1700 µM | 2100 µM | > 3000 µM | > 3000 µM | – |
| COc1ccc(C(=O)NC(C)c2ccccc2)cc1C (stereo not drawn) [4-methoxy-3-methyl-N-(1-phenylethyl)benzamide] | 3 mM | 41.0 % of IMP | 0.51 | > 3000 µM | 95.6 % of ALa | 0.35 mM | 0.51 | 3 mM | > 3000 µM | 95.6 % of Ala | 1.1775 | 1400 µM | 1200 µM | 1400 µM | > 3000 µM | > 3000 µM | – |
| CCCC(C)NC(=O)c1ccc(OC)c(C)c1 (stereo not drawn) [4-methoxy-3-methyl-N-(pentan-2-yl)benzamide] | 0.050 mM | 126.0 % of IMP | 1.5650 | – | 128.9 % of ALa | 0.025 mM | 1.5650 | 0.050 mM | 200 µM | 128.9 % of Ala | 1.5875 | 100 µM | 30 µM | 100 µM | 400 µM | 400 µM | EC50 (read-out: EC50 + Alanine): 200 µM |
| CCC(CC)NC(=O)c1ccc(Br)o1 [5-bromo-N-(pentan-3-yl)furan-2-carboxamide] | 1 mM | 126.8 % of IMP | 1.575 | > 3000 µM | 149.6 % of ALa | 0.3 mM | 1.575 | 1 mM | > 3000 µM | 149.6 % of Ala | 1.8425 | > 1000 µM | > 1000 µM | > 1000 µM | > 3000 µM | > 3000 µM | – |
| COc1ccc(/C=C/C(=O)NC2CCCCC2C)cc1 (stereo not drawn) [(E)-3-(4-methoxyphenyl)-N-(2-methylcyclohexyl) acrylamide] | 3 mM | 63.2 % of IMP | 0.785 | > 10000 µM | 144.0 % of ALa | 0.3 mM | 0.785 | 3 mM | > 10000 µM | 144.0 % of Ala | 1.7725 | > 3000 µM | > 3000 µM | > 3000 µM | > 10000 µM | > 10000 µM | – |
| CCC(CC)NC(=O)/C=C/c1ccc(OC)cc1 [(E)-3-(4-methoxyphenyl)-N-(pentan-3-yl)acrylamide] | 0.148 mM | 64.1 % of IMP | 0.7 | – | 171.7 % of ALa | 0.0375 mM | 0.7 | 0.148 mM | 590 µM | 171.7 % of Ala | 1.443 | 150 µM | 80 µM | 150 µM | 450 µM | 450 µM | EC50: 80 ± 10 µM; EC50 (EC50 + Alanine + IMP, + Alanine (20 mM) + IMP (0.2 mM), Table 17): 80 µM; EC50 (EC50 - with IMP (0.2 mM), with 0.2 mM IMP): 150 ± 20 µM; EC50 (alone in buffer, read-out: EC50 - alone): 450 ± 10 µM; EC50 (read-out: EC50 + Alanine): 590 µM |
| COC(=O)C(NC(=O)/C=C/c1cccs1)C(C)C (stereo not drawn) [(E)-methyl 3-methyl-2-(3-(thiophen-2-yl)acrylamido)butanoate] | 10 mM | 9.5 % of IMP | 0.1175 | – | 59.9 % of ALa | 1 mM | 0.1175 | 10 mM | – | 59.9 % of Ala | 0.7375 | > 10000 µM | > 10000 µM | > 10000 µM | – | – | – |
| O=C(NCCc1ccccc1)C(=O)NCc1cccnc1 [N1-phenethyl-N2-(pyridin-3-ylmethyl)oxalamide] | 1 mM | 30.2 % of IMP | 0.3750 | > 1000 µM | 61.9 % of ALa | 0.1 mM | 0.3750 | 1 mM | > 1000 µM | 61.9 % of Ala | 0.7625 | > 300 µM | 200 µM | > 300 µM | > 1000 µM | > 1000 µM | – |
| CC1CCCC(NC(=O)c2ccc3c(c2)OCO3)C1C (stereo not drawn) [N-(2,3-dimethylcyclohexyl) benzo[d][1,3]dioxole-5-carboxamide] | 3 mM | 18.1 % of IMP | 0.225 | – | 95.4 % of ALa | 0.275 mM | 0.225 | 3 mM | > 3000 µM | 95.4 % of Ala | 1.175 | 1100 µM | 600 µM | 1100 µM | 2000 µM | 2000 µM | EC50 (read-out: EC50 + Alanine): > 3000 µM |
| COc1cc(C(=O)NC(C(N)=O)c2ccccc2)cc(Cl)c1OC (stereo not drawn) [N-(2-amino-2-oxo-1-phenylethyl)-3-chloro-4,5-dimethoxybenzamide] | – | – | – | – | 49.4 % of ALa | 0.17 mM | – | – | – | 49.4 % of Ala | 0.415 | 680 µM | 750 µM | 680 µM | – | – | activation of T1R1/T1R3 by the compound alone (in words): failed to activate T1R1/T1R3 alone |
| CCCC(CCC)C(=O)Nc1ccc2c(c1)OCO2 [N-(benzo[d][1,3]dioxol-5-yl)-2-propylpentanamide] | – | – | – | – | 108.0 % of ALa | 0.0675 mM | – | – | – | 108.0 % of Ala | 0.908 | 270 µM | 90 µM | 270 µM | 350 µM | 350 µM | activation of T1R1/T1R3 by the compound alone (in words): agonist of T1R1/T1R3 alone |
